# Measurements: ChEMBL document CHEMBL6071163, “The multicomponent Passerini reaction as a means of accessing diversity in structure, activity and properties: Soft and hard vanilloid/cannabinoid modulators” (Eur J Med Chem, 2024)
# Columns and labels:
# Cannabinoid receptor 2 [1] = molecular target: T1, Cannabinoid receptor 2 (Homo sapiens, UniProt P34972); assay: Antagonist activity at recombinant human CB2 receptor expressed in HEK293-CNG cells assessed as cAMP accumulation incubated for 60 mins in presence of forskolin by fluorescence based analysis; assay type: functional, cell-based
# T1 sequence (P34972 whole entry): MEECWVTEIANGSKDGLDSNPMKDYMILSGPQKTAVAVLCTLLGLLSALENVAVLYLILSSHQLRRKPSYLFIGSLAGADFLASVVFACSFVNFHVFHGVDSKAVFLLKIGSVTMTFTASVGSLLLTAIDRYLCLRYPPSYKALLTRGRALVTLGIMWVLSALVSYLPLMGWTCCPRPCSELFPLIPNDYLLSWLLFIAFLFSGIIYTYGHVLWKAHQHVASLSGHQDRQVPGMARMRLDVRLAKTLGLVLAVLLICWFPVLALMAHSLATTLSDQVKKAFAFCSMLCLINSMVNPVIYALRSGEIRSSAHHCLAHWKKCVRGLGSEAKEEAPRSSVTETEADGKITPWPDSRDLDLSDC
# Cannabinoid receptor 2 [2] = molecular target: T1, Cannabinoid receptor 2; assay: Agonist activity at recombinant human CB2 receptor expressed in HEK293-CNG cells assessed as reduction in forskolin-induced cAMP accumulation incubated for 60 mins by fluorescence based analysis; assay type: functional, cell-based
# Cannabinoid receptor 1 = Cannabinoid receptor 1 (Homo sapiens, UniProt P21554); assay: Agonist activity at recombinant human CB1 receptor expressed in HEK293-CNG cells assessed as reduction in forskolin-induced cAMP accumulation incubated for 60 mins by fluorescence based analysis; assay type: functional, cell-based
# Chain of Cannabinoid receptor 1 (P21554 whole entry): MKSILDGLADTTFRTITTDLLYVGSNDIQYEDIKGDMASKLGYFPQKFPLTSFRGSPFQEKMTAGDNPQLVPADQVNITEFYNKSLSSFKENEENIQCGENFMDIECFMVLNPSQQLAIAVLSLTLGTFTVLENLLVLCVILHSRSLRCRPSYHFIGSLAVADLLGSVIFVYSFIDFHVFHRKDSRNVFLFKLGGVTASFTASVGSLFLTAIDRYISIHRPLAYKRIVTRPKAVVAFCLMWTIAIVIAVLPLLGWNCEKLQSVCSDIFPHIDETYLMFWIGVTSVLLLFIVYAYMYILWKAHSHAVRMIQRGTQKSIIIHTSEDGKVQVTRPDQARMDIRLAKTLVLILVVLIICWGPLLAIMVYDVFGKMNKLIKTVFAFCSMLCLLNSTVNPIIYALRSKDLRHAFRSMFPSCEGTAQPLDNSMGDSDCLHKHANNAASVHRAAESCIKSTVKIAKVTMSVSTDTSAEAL
# [3] = molecular target: T2, Transient receptor potential cation channel subfamily V member 1 (Homo sapiens, UniProt Q8NER1); assay: Agonist activity at recombinant human TRPV1 transfected in HEK293 cells assessed as increase in intracellular Ca2+ influx by Fluo-4 NW Ca2+ dye based microfluorometric calcium flux assay
# T2 sequence (Q8NER1 whole entry): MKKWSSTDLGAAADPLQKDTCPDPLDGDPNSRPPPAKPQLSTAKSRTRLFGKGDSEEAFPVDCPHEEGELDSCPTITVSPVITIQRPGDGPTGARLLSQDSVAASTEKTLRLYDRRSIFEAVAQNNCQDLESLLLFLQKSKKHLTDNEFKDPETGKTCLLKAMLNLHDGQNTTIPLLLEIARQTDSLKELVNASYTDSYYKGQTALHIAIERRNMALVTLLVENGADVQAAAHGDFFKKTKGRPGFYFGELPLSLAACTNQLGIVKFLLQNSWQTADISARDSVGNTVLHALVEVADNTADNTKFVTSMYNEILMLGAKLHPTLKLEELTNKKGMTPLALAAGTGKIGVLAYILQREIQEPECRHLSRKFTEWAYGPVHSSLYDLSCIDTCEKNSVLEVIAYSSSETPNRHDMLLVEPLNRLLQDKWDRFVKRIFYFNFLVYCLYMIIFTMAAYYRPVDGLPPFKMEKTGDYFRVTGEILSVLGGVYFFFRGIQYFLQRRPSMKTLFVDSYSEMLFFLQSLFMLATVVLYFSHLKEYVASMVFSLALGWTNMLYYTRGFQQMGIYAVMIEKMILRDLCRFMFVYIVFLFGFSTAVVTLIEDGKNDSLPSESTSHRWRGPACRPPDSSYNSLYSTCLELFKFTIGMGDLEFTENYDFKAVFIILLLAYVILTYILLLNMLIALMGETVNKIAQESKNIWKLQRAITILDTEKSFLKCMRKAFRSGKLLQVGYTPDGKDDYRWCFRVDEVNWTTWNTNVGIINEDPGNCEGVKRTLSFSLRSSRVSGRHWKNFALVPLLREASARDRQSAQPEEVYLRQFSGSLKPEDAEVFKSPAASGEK
# [4] = molecular target: T2, Transient receptor potential cation channel subfamily V member 1
# [5] = Metabolic stability in human liver S9 fraction assessed as parent compound remaining at 5 uM incubated for 60 mins
# [6] = Metabolic stability in human plasma assessed as parent compound remaining at 50 uM incubated for 60 mins
# [7] = Metabolic stability in human skin S9 fraction assessed as parent compound remaining at 5 uM incubated for 60 mins
# [8] = Metabolic stability in human Keratinocytes assessed as parent compound remaining at 5 uM incubated for 120 mins
# [9] = Metabolic stability in human HaCaT cells assessed as parent compound remaining at 5 uM incubated for 120 mins
# [10] = Metabolic stability in human Fibroblast assessed as parent compound remaining at 5 uM incubated for 120 mins; conditions: fibroblasts
# [11] = molecular target: T2, Transient receptor potential cation channel subfamily V member 1; assay: Agonist activity at human TRPV1 expressed in HEK293 cells assessed as induction of current by patch clamp assay
smiles,measurement,setting,value
COc1ccc(C(=O)c2c(C)n(CCN3CCOCC3)c3cc(I)ccc23)cc1,IC50,Cannabinoid receptor 2 [1],0.03 µM
O=C(CO)NCCO,EC50,Cannabinoid receptor 2 [2],> 100 µM
same,EC50,Cannabinoid receptor 1,> 100 µM
same,EC50,[3],> 100 µM
CCCCCC[C@H](C/C=C\CCCCCCCC(=O)OCC(=O)NCCc1cc(O)c(O)cc1I)OC(=O)Cc1ccccc1,IC50,[4],> 100 µM
C=CCNC(=O)COC(=O)CCCCCCCCCCC,EC50,[3],11.4 µM
C=CCNC(=O)COC(=O)CCCCCCC/C=C\C[C@@H](CCCCCC)OC(=O)Cc1ccccc1,EC50,[3],15.2 µM
CCCCCCCC/C=C\CCCCCCCC(=O)OCC(=O)NC1CC1,EC50,Cannabinoid receptor 1,27.9 µM
same,EC50,[3],0.7 µM
O=C(CO)NCCc1cc(O)c(O)cc1I,IC50,[4],> 100 µM
same,EC50,Cannabinoid receptor 2 [2],> 100 µM
same,EC50,Cannabinoid receptor 1,> 100 µM
C=CCNC(=O)CO,EC50,Cannabinoid receptor 2 [2],> 100 µM
same,EC50,Cannabinoid receptor 1,> 100 µM
same,EC50,[3],> 100 µM
CCCCC/C=C\C/C=C\C/C=C\C/C=C\CCCC(=O)OCC(=O)NCCO,"remaining at 1 h, 5 µM",[5],24%
same,"remaining at 1 h, 50 µM",[6],> 99%
same,EC50,Cannabinoid receptor 1,30.6 µM
same,"remaining at 1 h, 5 µM",[7],76%
same,EC50,[3],2.1 µM
same,"remaining at 2 h, 5 µM",[8],97%
same,"remaining at 2 h, 5 µM",[9],> 99%
same,"remaining at 2 h, 5 µM",[10],73%
CC(C)=CCC/C(C)=C/C(=O)OCC(=O)NC1CC1,EC50,[3],33.1 µM
CCCCCC[C@H](C/C=C\CCCCCCCC(=O)OCC(=O)NC1CC1)OC(=O)Cc1ccccc1,EC50,[3],2.6 µM
CCCCCCCCCCCC(=O)OCC(=O)NC1CC1,"remaining at 1 h, 5 µM",[5],1%
same,"remaining at 1 h, 50 µM",[6],80%
same,EC50,Cannabinoid receptor 2 [2],87.6 µM
same,"remaining at 1 h, 5 µM",[7],69%
same,EC50,[3],1.7 µM
same,"remaining at 2 h, 5 µM",[8],99%
same,"remaining at 2 h, 5 µM",[9],94%
same,"remaining at 2 h, 5 µM",[10],62%
CC(C)=CCC/C(C)=C/C(=O)OCC(=O)NCCO,"remaining at 1 h, 5 µM",[5],89%
same,"remaining at 1 h, 50 µM",[6],89%
same,EC50,Cannabinoid receptor 2 [2],37.8 µM
same,"remaining at 1 h, 5 µM",[7],96%
same,EC50,[3],26.8 µM
same,"remaining at 2 h, 5 µM",[8],96%
same,"remaining at 2 h, 5 µM",[9],98%
same,EC50,[11],47.5 µM
same,"remaining at 2 h, 5 µM",[10],93%
CC(C)=CCC/C(C)=C/C(=O)OCC(=O)NCCc1cc(O)c(O)cc1I,EC50,Cannabinoid receptor 2 [2],36.8 µM
same,EC50,Cannabinoid receptor 1,41.4 µM
C=CCNC(=O)COC(=O)CC/C(C)=C/CC/C(C)=C/CC/C=C(\C)CC/C=C(\C)CCC=C(C)C,EC50,[3],36.4 µM
CCCCCCCC(=O)OCC(=O)NCCc1cc(O)c(O)cc1I,"remaining at 1 h, 5 µM",[5],1%
same,"remaining at 1 h, 50 µM",[6],13%
same,IC50,[4],54.2 µM
same,EC50,Cannabinoid receptor 2 [2],> 100 µM
same,"remaining at 1 h, 5 µM",[7],27%
same,"remaining at 2 h, 5 µM",[8],85%
same,"remaining at 2 h, 5 µM",[9],73%
same,"remaining at 2 h, 5 µM",[10],69%
CCCCCCCC(=O)OCC(=O)NCCc1ccc(O)c(O)c1,EC50,Cannabinoid receptor 1,13.9 µM
same,EC50,[3],10.6 µM
CC(C)=CCC/C(C)=C/C(=O)OCC(=O)NCCc1ccc(O)c(O)c1,EC50,Cannabinoid receptor 2 [2],89.9 µM
same,EC50,Cannabinoid receptor 1,118 µM
O=C(CO)NCCc1ccc(O)c(O)c1,EC50,Cannabinoid receptor 2 [2],> 100 µM
same,EC50,Cannabinoid receptor 1,> 100 µM
CCCCCC[C@H](C/C=C\CCCCCCCC(=O)OCC(=O)NCCO)OC(=O)Cc1ccccc1,EC50,[3],3.7 µM
C=CCNC(=O)COC(=O)CCCCCCC/C=C\CCCCCCCC,EC50,[3],4.7 µM
CCCCC/C=C\C/C=C\C/C=C\C/C=C\CCCC(=O)OCC(=O)NCCc1ccc(O)c(O)c1,EC50,[3],1 µM
CCCCCCCCCCCC(=O)OCC(=O)NCCc1cc(O)c(O)cc1I,IC50,[4],64.9 µM
CCCCC/C=C\C/C=C\C/C=C\C/C=C\CCCC(=O)OCC(=O)NC1CC1,EC50,Cannabinoid receptor 1,13.8 µM
CC(C)=CCC/C(C)=C/CC/C(C)=C/CC/C=C(\C)CC/C=C(\C)CCC(=O)OCC(=O)NC1CC1,EC50,Cannabinoid receptor 1,196 µM
same,EC50,[3],13.4 µM
O=C(CO)NC1CC1,EC50,Cannabinoid receptor 2 [2],> 100 µM
same,EC50,Cannabinoid receptor 1,> 100 µM
same,EC50,[3],> 100 µM
C=CCNC(=O)COC(=O)CCC/C=C\C/C=C\C/C=C\C/C=C\CCCCC,EC50,Cannabinoid receptor 2 [2],62 µM
same,EC50,Cannabinoid receptor 1,16.6 µM
same,EC50,[3],21.8 µM
CCCCCC[C@H](C/C=C\CCCCCCCC(=O)OCC(=O)NCCc1ccc(O)c(O)c1)OC(=O)Cc1ccccc1,EC50,[3],3.1 µM
C=CCNC(=O)COC(=O)CCCCCCC,EC50,[3],23.3 µM
